Source: the NIST ThermoML archive (doi:10.1021/je050031f)

What was measured:
[1] = refractive index (Na D-line) (dimensionless); xn = mol fraction of the nth substance listed; settings: 100.8 kPa, Liquid, Standard Abbe refractometry
[2] = xn = mol fraction of the nth substance listed; settings: 100.8 kPa, Liquid; for viscosity: Capillary tube (Ostwald / Ubbelohde) method

CC1CCCCC1 [methylcyclohexane] + CC(C)OC(C)C
Settings | mass density, 288.15 K [kg/m3] | mass density, 298.15 K [kg/m3] | mass density, 308.15 K [kg/m3] | refractive index, 288.15 K | refractive index, 298.15 K | refractive index, 308.15 K | viscosity, 288.15 K [mPa·s] | viscosity, 298.15 K [mPa·s] | viscosity, 308.15 K [mPa·s]
[1], x2 = 0 | – | – | – | 1.42578 | 1.42053 | 1.41537 | – | – | –
[1], x2 = 0.0502 | – | – | – | 1.42321 | 1.41757 | 1.4125 | – | – | –
[1], x2 = 0.1 | – | – | – | 1.42014 | 1.4146 | 1.40957 | – | – | –
[1], x2 = 0.15 | – | – | – | 1.41715 | 1.41158 | 1.40663 | – | – | –
[1], x2 = 0.2 | – | – | – | 1.41419 | 1.40859 | 1.40365 | – | – | –
[1], x2 = 0.25 | – | – | – | 1.41129 | 1.40565 | 1.40068 | – | – | –
[1], x2 = 0.3 | – | – | – | 1.40842 | 1.40277 | 1.39775 | – | – | –
[1], x2 = 0.35 | – | – | – | 1.40558 | 1.3999 | 1.39484 | – | – | –
[1], x2 = 0.4 | – | – | – | 1.40277 | 1.39707 | 1.39197 | – | – | –
[1], x2 = 0.45 | – | – | – | 1.39999 | 1.39428 | 1.38912 | – | – | –
[1], x2 = 0.5 | – | – | – | 1.39721 | 1.3915 | 1.38631 | – | – | –
[1], x2 = 0.55 | – | – | – | 1.3945 | 1.38878 | 1.38356 | – | – | –
[1], x2 = 0.6 | – | – | – | 1.3918 | 1.3861 | 1.38083 | – | – | –
[1], x2 = 0.65 | – | – | – | 1.38914 | 1.38347 | 1.37818 | – | – | –
[1], x2 = 0.7 | – | – | – | 1.38652 | 1.38082 | 1.37552 | – | – | –
[1], x2 = 0.75 | – | – | – | 1.38392 | 1.37823 | 1.37286 | – | – | –
[1], x2 = 0.8 | – | – | – | 1.38136 | 1.37565 | 1.37025 | – | – | –
[1], x2 = 0.85 | – | – | – | 1.37883 | 1.37309 | 1.36765 | – | – | –
[1], x2 = 0.9 | – | – | – | 1.37629 | 1.37053 | 1.36503 | – | – | –
[1], x2 = 0.95 | – | – | – | 1.37377 | 1.36799 | 1.36243 | – | – | –
[2], x2 = 0 | 773.4 | 765 | 756.3 | – | – | – | 0.784 | 0.685 | 0.6
[2], x2 = 0.0502 | 771.3 | 762.5 | 753.8 | – | – | – | 0.744 | 0.653 | 0.575
[2], x2 = 0.1 | 768.9 | 760.1 | 751.3 | – | – | – | 0.697 | 0.612 | 0.542
[2], x2 = 0.15 | 766.6 | 757.7 | 748.8 | – | – | – | 0.66 | 0.579 | 0.514
[2], x2 = 0.2 | 764.3 | 755.3 | 746.3 | – | – | – | 0.627 | 0.551 | 0.489
[2], x2 = 0.25 | 761.9 | 752.9 | 743.8 | – | – | – | 0.595 | 0.524 | 0.467
[2], x2 = 0.3 | 759.6 | 750.5 | 741.3 | – | – | – | 0.568 | 0.502 | 0.448
[2], x2 = 0.35 | 757.4 | 748.1 | 738.9 | – | – | – | 0.543 | 0.481 | 0.43
[2], x2 = 0.4 | 755.1 | 745.8 | 736.4 | – | – | – | 0.522 | 0.464 | 0.415
[2], x2 = 0.45 | 752.8 | 743.4 | 734 | – | – | – | 0.503 | 0.447 | 0.401
[2], x2 = 0.5 | 750.6 | 741.1 | 731.6 | – | – | – | 0.484 | 0.431 | 0.387
[2], x2 = 0.55 | 748.4 | 738.8 | 729.2 | – | – | – | 0.466 | 0.415 | 0.373
[2], x2 = 0.6 | 746.2 | 736.5 | 726.8 | – | – | – | 0.447 | 0.399 | 0.36
[2], x2 = 0.65 | 743.9 | 734.2 | 724.4 | – | – | – | 0.431 | 0.385 | 0.347
[2], x2 = 0.7 | 741.7 | 731.9 | 722 | – | – | – | 0.415 | 0.372 | 0.335
[2], x2 = 0.75 | 739.6 | 729.6 | 719.6 | – | – | – | 0.403 | 0.361 | 0.325
[2], x2 = 0.8 | 737.4 | 727.3 | 717.3 | – | – | – | 0.389 | 0.349 | 0.316
[2], x2 = 0.85 | 735.3 | 725.1 | 714.9 | – | – | – | 0.379 | 0.341 | 0.308
[2], x2 = 0.9 | 733.1 | 722.9 | 712.6 | – | – | – | 0.368 | 0.331 | 0.299
[2], x2 = 0.95 | 731 | 720.6 | 710.3 | – | – | – | 0.358 | 0.321 | 0.291
